# How the values were obtained:
# Assay type in all cases: cell-based
# [1] = biological target: T1, human cloned CHRM2 receptor (M2_CHO cells) (Homo sapiens, UniProt P08172); assay: CHRM2 Ca++ Flux Assay (agonist mode, FDSS 7000EX); details: for M2 FDSS PA: Percent Activity measured to EC100 of Carbachol
# T1 construct: expressed in transfected cells; host or cells: CHO-K1
# T1 sequence (P08172 1-466): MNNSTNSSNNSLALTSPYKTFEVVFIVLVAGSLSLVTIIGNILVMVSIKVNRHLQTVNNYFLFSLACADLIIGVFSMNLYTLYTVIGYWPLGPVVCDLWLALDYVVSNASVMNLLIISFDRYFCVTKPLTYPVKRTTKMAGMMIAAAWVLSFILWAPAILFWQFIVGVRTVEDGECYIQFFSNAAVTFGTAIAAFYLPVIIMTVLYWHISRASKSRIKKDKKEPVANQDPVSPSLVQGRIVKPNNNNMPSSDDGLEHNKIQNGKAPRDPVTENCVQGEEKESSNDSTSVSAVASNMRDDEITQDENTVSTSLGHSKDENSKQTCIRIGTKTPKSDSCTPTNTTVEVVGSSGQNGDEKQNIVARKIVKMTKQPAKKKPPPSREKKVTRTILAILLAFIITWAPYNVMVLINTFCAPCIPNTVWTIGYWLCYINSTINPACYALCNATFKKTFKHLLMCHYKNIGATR
# Summary of the method: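 Agonist-mode Ca++ flux in CHO-K1 cells stably expressing human CHRM2, dye-loaded, then held 60 min at room temperature in buffer with 20 μM ATP before compound addition; traces read over 3 minutes. Four-parameter fit of triplicate wells; percent activity relative to Carbachol EC100.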
# [2] = biological target: T2, human cloned CHRM3 receptor (M3_CHO cells) (Homo sapiens, UniProt P20309); assay: CHRM3 Ca++ Flux Assay (agonist mode, FDSS 7000EX); details: for M3 FDSS PA: Percent Activity measured to EC100 of Carbachol; for EC50: agonist mode, geometric mean if tested more than once, read-out: M3 FDSS EC50
# T2 construct: expressed in transfected cells; host or cells: CHO-K1
# T2 sequence (P20309 whole entry): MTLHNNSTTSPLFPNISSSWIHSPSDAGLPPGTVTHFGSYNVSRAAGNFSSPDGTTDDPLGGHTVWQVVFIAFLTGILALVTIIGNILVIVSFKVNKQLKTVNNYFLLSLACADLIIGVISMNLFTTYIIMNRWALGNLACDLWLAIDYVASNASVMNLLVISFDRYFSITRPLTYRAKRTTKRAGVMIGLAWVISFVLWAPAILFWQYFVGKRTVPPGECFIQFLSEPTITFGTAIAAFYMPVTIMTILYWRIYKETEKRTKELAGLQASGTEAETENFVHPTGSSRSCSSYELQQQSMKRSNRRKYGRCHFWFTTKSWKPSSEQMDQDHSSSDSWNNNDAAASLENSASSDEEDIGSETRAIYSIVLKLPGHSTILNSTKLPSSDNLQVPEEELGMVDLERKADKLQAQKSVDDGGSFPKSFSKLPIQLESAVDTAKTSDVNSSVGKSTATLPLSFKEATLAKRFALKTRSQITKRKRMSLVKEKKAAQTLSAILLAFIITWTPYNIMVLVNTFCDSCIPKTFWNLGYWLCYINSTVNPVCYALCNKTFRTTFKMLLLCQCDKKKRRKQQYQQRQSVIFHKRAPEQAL
# Summary of the method: (§1)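 Agonist-mode calcium flux: 11-point dose responses, triplicate wells, fluorescence followed for 3 minutes. Cells are M3_CHO or M5_CHO lines (human receptors) with Ca++ indicator in probenecid-containing HEPES/HBSS buffer. Percent activity is referenced to carbachol EC100, and curves come from four-parameter nonlinear regression.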
# [3] = biological target: T3, human cloned CHRM5 receptor (M5_CHO) (Homo sapiens, UniProt P08912); assay: CHRM5 Ca++ Flux Assay (agonist mode, FDSS 7000EX); details: for M5 FDSS PA: Percent Activity measured to EC100 of Carbachol; for EC50: agonist mode, geometric mean if tested more than once, read-out: M5 FDSS EC50
# T3 construct: expressed in transfected cells; host or cells: CHO (M5_CHO)
# T3 sequence (P08912 1-532): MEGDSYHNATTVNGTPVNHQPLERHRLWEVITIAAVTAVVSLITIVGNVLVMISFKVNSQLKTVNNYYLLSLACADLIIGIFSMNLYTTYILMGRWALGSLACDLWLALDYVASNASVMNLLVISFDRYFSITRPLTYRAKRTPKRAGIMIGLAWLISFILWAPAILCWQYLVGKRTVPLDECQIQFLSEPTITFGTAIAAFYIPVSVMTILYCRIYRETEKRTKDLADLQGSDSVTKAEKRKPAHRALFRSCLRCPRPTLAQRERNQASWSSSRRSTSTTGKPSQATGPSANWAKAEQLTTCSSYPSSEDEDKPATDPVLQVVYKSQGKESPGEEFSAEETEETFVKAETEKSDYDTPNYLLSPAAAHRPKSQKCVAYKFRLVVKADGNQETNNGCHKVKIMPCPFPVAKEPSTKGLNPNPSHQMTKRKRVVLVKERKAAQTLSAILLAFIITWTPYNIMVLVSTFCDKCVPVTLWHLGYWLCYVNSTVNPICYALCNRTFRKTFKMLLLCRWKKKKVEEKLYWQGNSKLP
# Summary of the method: as §1
Compound,M2 FDSS PA [1],M3 FDSS PA [2],EC50 [2],M5 FDSS PA [3],EC50 [3],"EC50 ([1]; agonist mode, geometric mean if tested more than once, read-out: M2 FDSS EC50)"
"O=C(N1CC2(CC[C@@H](N3CCC(c4cc(F)ccc4OC4CCOCC4)CC3)C2)C1)C1(F)CC1 (single isomer, unassigned) [Example 9C, (R)-(6-(4-(5-fluoro-2-((tetrahydro-2H-pyran-4-yl)oxy)phenyl)piperidin-1-yl)-2-azaspiro[3.4]octan-2-yl)(1-fluorocyclopropyl)methanone or (S)-(6-(4-(5-fluoro-2-((tetrahydro-2H-pyran-4-yl)oxy)phenyl)piperidin-1-yl)-2-azaspiro[3.4]octan-2-yl)(1-fluorocyclopropyl)methanone]",0%,0%,> 25 µM,0%,> 25 µM,
"O=C(N1CC2(CC[C@@H](N3CCC(c4cc(F)ccc4OC4CCOCC4)CC3)C2)C1)C1(F)CC1 (single isomer, unassigned) [Example 9D, (R)-(6-(4-(5-fluoro-2-((tetrahydro-2H-pyran-4-yl)oxy)phenyl)piperidin-1-yl)-2-azaspiro[3.4]octan-2-yl)(1-fluorocyclopropyl)methanone or (S)-(6-(4-(5-fluoro-2-((tetrahydro-2H-pyran-4-yl)oxy)phenyl)piperidin-1-yl)-2-azaspiro[3.4]octan-2-yl)(1-fluorocyclopropyl)methanone]",0%,0%,> 25 µM,0%,> 25 µM,< 26 µM
"O=C(N1CC2(CC[C@@H](N3CCC(c4ccccc4OC4CCOCC4)CC3)C2)C1)C1(F)CC1 (single isomer, unassigned) [Example 9E, (R)-(1-fluorocyclopropyl)(6-(4-(2-((tetrahydro-2H-pyran-4-yl)oxy)phenyl)piperidin-1-yl)-2-azaspiro[3.4]octan-2-yl)methanone or (S)-(1-fluorocyclopropyl)(6-(4-(2-((tetrahydro-2H-pyran-4-yl)oxy)phenyl)piperidin-1-yl)-2-azaspiro[3.4]octan-2-yl)methanone]",0%,0%,> 25 µM,0%,> 25 µM,
"O=C(N1CC2(CC[C@@H](N3CCC(c4ccccc4OC4CCOCC4)CC3)C2)C1)C1(F)CC1 (single isomer, unassigned) [Example 9F, (R)-(1-fluorocyclopropyl)(6-(4-(2-((tetrahydro-2H-pyran-4-yl)oxy)phenyl)piperidin-1-yl)-2-azaspiro[3.4]octan-2-yl)methanone or (S)-(1-fluorocyclopropyl)(6-(4-(2-((tetrahydro-2H-pyran-4-yl)oxy)phenyl)piperidin-1-yl)-2-azaspiro[3.4]octan-2-yl)methanone]",0%,0%,> 25 µM,0%,> 25 µM,
"O=C(N1CC2(CC[C@@H](N3CCC(c4ccccc4C4(O)CCOCC4)CC3)C2)C1)C1(F)CC1 (single isomer, unassigned) [Example 9G, (R)-(1-fluorocyclopropyl)(6-(4-(2-(4-hydroxytetrahydro-2H-pyran-4-yl)phenyl)piperidin-1-yl)-2-azaspiro[3.4]octan-2-yl)methanone or (S)-(1-fluorocyclopropyl)(6-(4-(2-(4-hydroxytetrahydro-2H-pyran-4-yl)phenyl)piperidin-1-yl)-2-azaspiro[3.4]octan-2-yl)methanone]",0%,0%,> 25 µM,0%,> 25 µM,
"O=C(N1CC2(CC[C@@H](N3CCC(c4ccccc4C4(O)CCOCC4)CC3)C2)C1)C1(F)CC1 (single isomer, unassigned) [Example 9H, (R)-(1-fluorocyclopropyl)(6-(4-(2-(4-hydroxytetrahydro-2H-pyran-4-yl)phenyl)piperidin-1-yl)-2-azaspiro[3.4]octan-2-yl)methanone or (S)-(1-fluorocyclopropyl)(6-(4-(2-(4-hydroxytetrahydro-2H-pyran-4-yl)phenyl)piperidin-1-yl)-2-azaspiro[3.4]octan-2-yl)methanone]",0%,0%,> 25 µM,0%,> 25 µM,
"O=C(N1CC2(CC[C@@H](N3CCC(c4cc(F)ccc4C4(O)CCOCC4)CC3)C2)C1)C1(F)CC1 (single isomer, unassigned) [Example 9I, (R)-(6-(4-(5-fluoro-2-(4-hydroxytetrahydro-2H-pyran-4-yl)phenyl)piperidin-1-yl)-2-azaspiro[3.4]octan-2-yl)(1-fluorocyclopropyl)methanone or (S)-(6-(4-(5-fluoro-2-(4-hydroxytetrahydro-2H-pyran-4-yl)phenyl)piperidin-1-yl)-2-azaspiro[3.4]octan-2-yl)(1-fluorocyclopropyl)methanone]",0%,0%,> 25 µM,0%,> 25 µM,
"O=C(N1CC2(CC[C@@H](N3CCC(c4cc(F)ccc4C4(O)CCOCC4)CC3)C2)C1)C1(F)CC1 (single isomer, unassigned) [Example 9J, (R)-(6-(4-(5-fluoro-2-(4-hydroxytetrahydro-2H-pyran-4-yl)phenyl)piperidin-1-yl)-2-azaspiro[3.4]octan-2-yl)(1-fluorocyclopropyl)methanone or (S)-(6-(4-(5-fluoro-2-(4-hydroxytetrahydro-2H-pyran-4-yl)phenyl)piperidin-1-yl)-2-azaspiro[3.4]octan-2-yl)(1-fluorocyclopropyl)methanone]",0%,0%,> 25 µM,0%,> 25 µM,
"O=C(N1CC2(CC[C@@H](N3CCC(c4cc(F)ccc4C4CCOCC4)CC3)C2)C1)C1(F)CC1 (single isomer, unassigned) [Example 9K, (R)-(6-(4-(5-fluoro-2-(tetrahydro-2H-pyran-4-yl)phenyl)piperidin-1-yl)-2-azaspiro[3.4]octan-2-yl)(1-fluorocyclopropyl)methanone or (S)-(6-(4-(5-fluoro-2-(tetrahydro-2H-pyran-4-yl)phenyl)piperidin-1-yl)-2-azaspiro[3.4]octan-2-yl)(1-fluorocyclopropyl)methanone]",0%,−1%,> 25 µM,0%,> 25 µM,
"O=C(N1CC2(CC[C@@H](N3CCC(c4cc(F)ccc4C4CCOCC4)CC3)C2)C1)C1(F)CC1 (single isomer, unassigned) [Example 9L, (R)-(6-(4-(5-fluoro-2-(tetrahydro-2H-pyran-4-yl)phenyl)piperidin-1-yl)-2-azaspiro[3.4]octan-2-yl)(1-fluorocyclopropyl)methanone or (S)-(6-(4-(5-fluoro-2-(tetrahydro-2H-pyran-4-yl)phenyl)piperidin-1-yl)-2-azaspiro[3.4]octan-2-yl)(1-fluorocyclopropyl)methanone]",0%,0%,> 25 µM,0%,> 25 µM,
"Fc1cncc(N2CC3(CC[C@@H](N4CCC(c5cc(F)ccc5OC5CCOCC5)CC4)C3)C2)c1 (single isomer, unassigned) [Example 10A, (R)-6-(4-(5-fluoro-2-((tetrahydro-2H-pyran-4-yl)oxy)phenyl)piperidin-1-yl)-2-(5-fluoropyridin-3-yl)-2-azaspiro[3.4]octane or (S)-6-(4-(5-fluoro-2-((tetrahydro-2H-pyran-4-yl)oxy)phenyl)piperidin-1-yl)-2-(5-fluoropyridin-3-yl)-2-azaspiro[3.4]octane]",42%,0%,> 25 µM,0%,> 25 µM,

# Reference: US12122761B2, “2-azaspiro[3.4]octane derivatives as M4 agonists” (NOVARTIS AG, priority 2019, dated 2024)
